Data on two molecules can be found in patent US12017995B2, “Crystalline forms and salt forms of a kinase inhibitor” (Exelixis, Inc., priority 2018, dated 2024).

Entries after “also recorded” stand apart in the source; their conditions may differ. Like-named read-outs stand apart in the source and are kept apart here.

What all share (type): physicochemical
The nature of series [1]: pKa and log P determination (Pion Inc./Sirius Analytical Instruments Ltd.). Here is the method:
pKa and log P Determination: pKa and log P determination were performed by Pion Inc./Sirius Analytical Instruments Ltd. in East Sussex, United Kingdom.

A short description of series [2]: Dynamic vapor sorption (DVS). Particulars: for crystalline form of post-DVS sample by XRPD: after sorption/desorption; for water vapor uptake / weight gain by DVS: from 5% to 95% RH. Here is the method:
Dynamic Vapor Sorption (DVS)
a. VTI: Automated vapor sorption (VS) data were collected on a VTI SGA-100 Vapor Sorption Analyzer. NaCl and PVP were used as calibration standards. Samples were dried prior to analysis. Sorption and desorption data were collected over a range from 5% to 95% RH at 10% RH increments under a nitrogen purge. The equilibrium criterion used for analysis was less than 0.0100% weight change in 5 minutes with a maximum equilibration time of 3 hours. Data were not corrected for the initial moisture content of the samples.
b. Intrinsic: Automated vapor sorption (VS) data were collected on a Surface Measurement System DVS Intrinsic instrument. Samples were not dried prior to analysis. Sorption and desorption data were collected over a range from 5% to 95% RH at 10% RH increments under a nitrogen purge. The equilibrium criterion used for analysis was less than 0.0100% weight change in 5 minutes with a maximum equilibration time of 3 hours. Data were not corrected for the initial moisture content of the samples.

Series [3] can be described thus: Stability testing in open vials, 75% RH chamber at 40° C., analysed by PLM and XRPD. Particulars: 15 days / approximately 2 weeks, XRPD. Here is the method: (§1) The physical stability of Hemifumarate Form B was investigated. Compound 1 Hemifumarate Form B was slurried in water at ambient conditions for approximately 24 hours. In a separate experiment, the material was repeatedly washed with acetone.
Stability Testing: Various Compound 1 salts were placed in open vials within a 75% RH chamber (saturated sodium chloride solution). The RH chamber was placed in a 40° C. oven for 15-16 days. Samples were analyzed by PLM and XRPD upon the end of the duration.

Series [4] can be described thus: Disproportionation check: water slurry at ambient conditions and repeated acetone wash, XRPD of recovered material. As for the experimental part: as §1
Solids were then collected by vacuum filtration and analyzed by XRPD.

By pKa is commonly meant the negative logarithm of the acid dissociation constant. Low values mean a group that gives up its proton readily, high ones a group that holds its proton tightly. As to `CNC(=O)c1cc2c(Oc3ccc(NC(=O)C4(C(=O)Nc5ccc(F)cc5)CC4)cc3)ccnc2cc1OC` [Compound 1 Form A, 1-N′-(4-Fluorophenyl)-1-N-[4-[7-methoxy-6-(methylcarbamoyl)quinolin-4-yl]oxyphenyl]cyclopropane-1,1-dicarboxamide], the pKa in series [1] stood at 5.43 ± 0.4. In addition, the logP in series [1] (read-out: cationic log P) is 1.79 ± 0.8. For the same molecule, the logP in series [1] (read-out: neutral log P) turned out to be 4.5 ± 0.5. In addition, the “hygroscopicity by DVS (class)” value in series [2] (5% to 95% RH) is given as “Limited”. For the same molecule, in series [2], the “crystalline form of post-DVS sample by XRPD” value is “no change in crystalline form” and the “water vapor uptake / weight gain by DVS” value was roughly 0.91 wt %.
Regarding `CNC(=O)c1cc2c(Oc3ccc(NC(=O)C4(C(=O)Nc5ccc(F)cc5)CC4)cc3)ccnc2cc1OC` [Compound 1 Hemifumarate Form B], the “physical stability at 40° C. and 75% RH” value in series [3] is reported as “physically stable; also recorded: did not change by XRPD”. For the same molecule, in series [4] (repeatedly washed with acetone), the “disproportionation of the salt in acetone” value is recorded as “disproportionation was not evident; also recorded: did not cause disproportionation”. Further, in series [4] (slurried in water at ambient conditions for approximately 24 hours), the “disproportionation of the salt in water” value is listed as “disproportionation was not evident; also recorded: did not cause disproportionation”. In addition, the “hygroscopicity by DVS” value in series [2] (DVS isotherm) is “not hygroscopic”. In series [2], the “crystalline form of post-DVS sample by XRPD” value was “remained unchanged” and the “water vapor uptake / weight gain by DVS” value was “about 0.2 wt %”. Further, the “weight gain/loss through the DVS sorption/desorption experiment” value in series [2] (sorption/desorption 5% to 95% RH, without hysteresis) is recorded as “less than 0.2%”.
